Experimental data published in patent US9908897B2, “Spirocyclic derivatives” (CHRONOS THERAPEUTICS LIMITED, priority 2014, dated 2018).

Tests used:
[1] = target: human ERG potassium channel (hERG) (Homo sapiens (Human), UniProt Q12809); assay: hERG tail current recording, Rapid ICE automated patch-clamp; format: cell-based; details: HEK293 cells stably transfected with hERG
Protocol: Measure of the Effect on hERG Channel by Tail Current Recording Using In Vitro Rapid ICE™
The potency of the compounds of the invention in inhibiting human ERG potassium channel (hERG) tail current is assessed in a recombinant HEK293 cell line stably transfected with hERG cDNA using Rapid ICE™ (Rapid Ion Channel Electrophysiology) assay. Rapid ICE™ is an automated patch-clamp assay utilizing the PatchXpress 7000A system (Molecular Devices Corporation) or the QPatch HTX system (Sophion Bioscience A/S).
Briefly cells are cultivated for 24 to 72 hours before recordings in minimum essential medium supplemented with 10% FBS, 1% non-essential amino acids, 1% sodium pyruvate, 2 mM L-glutamine. The day of the experiment cells are detached with TrypLE and prepared to be loaded on the instrument. For PatchXpress cells are finally resuspended in 150 μl of Extracellular Buffer whereas for QPatch cells are resuspended in 7 ml Serum-Free Media containing 25 mM Hepes and Soybean trypsin inhibitor and immediately placed in the cell storage tank of the machine. The composition of the Extracellular Buffer is (mM): NaCl 137; KCl 4; CaCl2 1.8; MgCl2 1.0; D-glucose 10; N 2 hydroxyethylpiperazine-N′-2-ethanesulfonic acid (HEPES) 10; pH 7.4 with 1 M NaOH. The composition of the pipette solution is (mM): KCl 130; MgCl2 1.0; Ethylene glycol-bis(β-aminoethyl ether)-N,N,N′,N′-tetraacetic acid (EGTA) 5; MgATP 5; HEPES 10; pH 7.2 with 1 M KOH. The voltage protocol includes the following steps: step from −80 mV to −50 mV for 200 ms, +20 mV for 4.8 s, step to −50 mV for 5 s then step to the holding potential of −80 mV. Compounds of the invention are dissolved in DMSO and diluted in Extracellular Buffer to achieve final test concentrations (0.1, 1 and 10 μM) in 0.1% DMSO. The voltage protocol is run and recorded continuously during the experiment. The vehicle, corresponding to 0.1% DMSO in Extracellular Buffer, is then applied for 3 min followed by the test substance in triplicate. The standard combined exposure time is 5 min. The average of tail current amplitude values recorded from 4 sequential voltage pulses is used to calculate for each cell the effect of the test substance by calculating the residual current (% control) compared with vehicle pre-treatment. Data are reported as % inhibition for each concentration tested and IC50 values are estimated using DataXpress or QPatch software. At least two cells are tested, more if results diverge.

[2] = target: human dopamine transporter (DAT) (Homo sapiens (Human), UniProt Q01959); assay: Scintillation Proximity Assay (SPA) competition binding, human DAT; details: recombinant hDAT-CHO membranes, [3H]WIN-35,428
Sequence of human dopamine transporter (DAT) (Q01959 whole entry): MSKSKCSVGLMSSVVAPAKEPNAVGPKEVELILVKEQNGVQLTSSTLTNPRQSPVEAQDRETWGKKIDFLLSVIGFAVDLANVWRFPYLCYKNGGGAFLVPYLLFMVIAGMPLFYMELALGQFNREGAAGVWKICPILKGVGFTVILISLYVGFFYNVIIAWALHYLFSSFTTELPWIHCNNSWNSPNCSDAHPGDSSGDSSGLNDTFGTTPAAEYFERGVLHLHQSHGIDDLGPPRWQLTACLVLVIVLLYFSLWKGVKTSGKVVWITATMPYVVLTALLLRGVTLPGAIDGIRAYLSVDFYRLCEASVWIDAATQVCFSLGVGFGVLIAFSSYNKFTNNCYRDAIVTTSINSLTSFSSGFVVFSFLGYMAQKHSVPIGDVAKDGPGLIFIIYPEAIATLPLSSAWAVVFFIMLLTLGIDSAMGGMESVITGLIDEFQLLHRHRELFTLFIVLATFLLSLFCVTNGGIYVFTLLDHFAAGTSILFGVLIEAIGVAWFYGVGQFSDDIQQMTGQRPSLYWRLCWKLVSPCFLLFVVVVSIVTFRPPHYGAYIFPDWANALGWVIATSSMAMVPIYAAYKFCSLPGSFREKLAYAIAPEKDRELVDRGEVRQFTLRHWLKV
Outline: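 SPA binding on membranes from CHO cells stably expressing human DAT, with 5 nM [3H]WIN-35,428, WGA-PVT beads and 0.02% BSA in HEPES/NaCl/KCl buffer pH 7.4.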

[3] = target: human serotonin transporter (SERT) (Homo sapiens (Human), UniProt P31645); assay: Scintillation Proximity Assay (SPA) competition binding, human SERT; details: recombinant hSERT-CHO membranes, [3H]citalopram
Sequence of human serotonin transporter (SERT) (P31645 whole entry): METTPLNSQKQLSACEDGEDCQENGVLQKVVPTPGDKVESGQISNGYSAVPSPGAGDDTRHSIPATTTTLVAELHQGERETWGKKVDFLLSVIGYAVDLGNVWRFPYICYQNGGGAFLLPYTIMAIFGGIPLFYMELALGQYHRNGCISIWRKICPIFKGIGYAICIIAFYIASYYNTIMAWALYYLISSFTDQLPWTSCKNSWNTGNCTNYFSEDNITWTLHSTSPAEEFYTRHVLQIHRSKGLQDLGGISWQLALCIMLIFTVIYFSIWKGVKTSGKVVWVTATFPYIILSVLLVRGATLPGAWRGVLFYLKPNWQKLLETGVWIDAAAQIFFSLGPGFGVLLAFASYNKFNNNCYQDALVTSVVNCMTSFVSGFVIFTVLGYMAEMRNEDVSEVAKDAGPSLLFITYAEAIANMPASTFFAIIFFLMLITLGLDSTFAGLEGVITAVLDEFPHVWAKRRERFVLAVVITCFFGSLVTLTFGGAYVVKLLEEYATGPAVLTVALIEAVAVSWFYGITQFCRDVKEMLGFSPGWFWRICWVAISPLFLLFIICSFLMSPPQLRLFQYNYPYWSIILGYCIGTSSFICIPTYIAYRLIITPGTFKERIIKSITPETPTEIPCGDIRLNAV

[4] = target: human norepinephrine transporter (NET) (Homo sapiens (Human), UniProt P23975); assay: Scintillation Proximity Assay (SPA) competition binding, human NET; details: recombinant hNET-CHO membranes, [3H]nisoxetine
Sequence of human norepinephrine transporter (NET) (P23975 whole entry): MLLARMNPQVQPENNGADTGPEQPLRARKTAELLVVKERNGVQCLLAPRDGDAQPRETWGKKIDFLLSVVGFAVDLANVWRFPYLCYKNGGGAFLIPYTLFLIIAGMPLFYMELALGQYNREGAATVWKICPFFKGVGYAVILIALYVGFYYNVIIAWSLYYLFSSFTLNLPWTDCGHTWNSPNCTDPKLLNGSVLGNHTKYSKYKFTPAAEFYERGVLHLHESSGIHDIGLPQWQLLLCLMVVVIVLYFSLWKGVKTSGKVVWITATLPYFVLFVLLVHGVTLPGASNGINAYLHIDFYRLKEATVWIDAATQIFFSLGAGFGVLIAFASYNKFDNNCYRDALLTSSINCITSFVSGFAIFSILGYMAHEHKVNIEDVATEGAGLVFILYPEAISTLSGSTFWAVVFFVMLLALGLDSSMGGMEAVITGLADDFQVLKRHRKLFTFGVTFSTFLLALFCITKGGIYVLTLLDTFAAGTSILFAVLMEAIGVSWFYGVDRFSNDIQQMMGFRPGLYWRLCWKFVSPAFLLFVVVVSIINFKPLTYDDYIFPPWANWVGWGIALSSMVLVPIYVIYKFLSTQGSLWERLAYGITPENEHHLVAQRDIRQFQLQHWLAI

Sequence of human ERG potassium channel (hERG) (Q12809 whole entry): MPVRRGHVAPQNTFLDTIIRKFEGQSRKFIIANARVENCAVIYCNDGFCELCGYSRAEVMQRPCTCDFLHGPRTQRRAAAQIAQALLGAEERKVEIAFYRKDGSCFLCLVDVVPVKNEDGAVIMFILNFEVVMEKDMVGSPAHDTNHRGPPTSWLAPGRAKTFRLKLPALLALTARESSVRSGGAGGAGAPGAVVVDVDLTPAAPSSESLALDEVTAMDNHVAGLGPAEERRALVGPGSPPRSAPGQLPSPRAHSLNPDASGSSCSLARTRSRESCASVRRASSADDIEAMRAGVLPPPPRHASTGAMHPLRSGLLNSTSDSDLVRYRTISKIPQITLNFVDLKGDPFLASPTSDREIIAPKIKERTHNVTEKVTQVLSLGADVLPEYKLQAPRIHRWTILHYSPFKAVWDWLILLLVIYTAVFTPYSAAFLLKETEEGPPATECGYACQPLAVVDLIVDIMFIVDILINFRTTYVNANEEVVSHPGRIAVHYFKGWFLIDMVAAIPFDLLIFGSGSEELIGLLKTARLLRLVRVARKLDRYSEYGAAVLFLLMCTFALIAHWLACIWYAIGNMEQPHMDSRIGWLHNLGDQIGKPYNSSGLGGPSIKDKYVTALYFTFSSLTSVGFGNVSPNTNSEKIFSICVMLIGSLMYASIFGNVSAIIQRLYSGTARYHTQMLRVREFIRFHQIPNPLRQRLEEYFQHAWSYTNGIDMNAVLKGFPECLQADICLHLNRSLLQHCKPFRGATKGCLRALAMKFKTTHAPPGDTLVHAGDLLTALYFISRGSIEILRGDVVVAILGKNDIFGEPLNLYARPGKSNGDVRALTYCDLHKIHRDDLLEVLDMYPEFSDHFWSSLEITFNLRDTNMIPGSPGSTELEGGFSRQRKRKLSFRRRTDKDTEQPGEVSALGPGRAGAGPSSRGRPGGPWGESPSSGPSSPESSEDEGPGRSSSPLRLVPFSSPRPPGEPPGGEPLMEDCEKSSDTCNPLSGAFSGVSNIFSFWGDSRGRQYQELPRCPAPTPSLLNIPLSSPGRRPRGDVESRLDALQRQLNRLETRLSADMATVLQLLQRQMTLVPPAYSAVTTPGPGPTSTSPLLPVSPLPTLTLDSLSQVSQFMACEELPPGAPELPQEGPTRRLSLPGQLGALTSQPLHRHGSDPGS

SMILES	pIC50 hERG [1]	pIC50 DAT [2]	pIC50 SERT [3]	pIC50 NET [4]
Fc1cccc(Oc2cc(F)c(F)c(N3CCC4(CC3)CNCCO4)c2)c1 [Example 13, 9-[2,3-difluoro-5-(3-fluorophenoxy)phenyl]-1-oxa-4,9-diazaspiro[5.5]undecane]	5.6	8.38	6.33	6.74
Fc1c(Oc2ccccc2)cccc1N1CCC2(CC1)CNCCO2 [Example 17, 9-(2-fluoro-3-phenoxyphenyl)-1-oxa-4,9-diazaspiro[5.5]undecane]	5.4	8.42	5.65	6.46
Cl.N#Cc1cccc(Oc2cc(C(F)(F)F)nc(N3CCC4(CC3)CNCCO4)n2)c1 [Example 59, 3-[(2-{1-oxa-4,9-diazaspiro[5.5]undecan-9-yl}-6-(trifluoromethyl)pyrimidin-4-yl)oxy]benzonitrile hydrochloride]	7.0	8.01	5.15	5.67
